Key:
[1] = system: HOP-92; test: NCI anticancer screening (SRB), Non-Small Cell Lung Cancer subpanel; type: cell-based, human; settings: 10.0 µM in one dose
[2] = system: MALME-3M; test: NCI anticancer screening (SRB), Melanoma subpanel; type: cell-based, human; settings: 10.0 µM in one dose
[3] = system: Breast Cancer subpanel tumor cell lines; test: NCI anticancer screening, subpanel summary; type: cell-based; settings: breast; 10 µM, joint for compounds named together
[4] = system: UO-31; test: NCI anticancer screening (SRB), Renal Cancer subpanel; type: cell-based, human; settings: 10.0 µM in one dose
[5] = system: 59 human cancer cell lines; test: NCI anticancer screening, full panel summary; settings: 10 µM single dose; for PCE (positive cytotoxic effect): ratio of cell lines with growth inhibition > 10% to total cell lines; for MG% (mean growth percent): mean over 59 cell lines
[6] = system: NSC Lung Cancer subpanel tumor cell lines; test: NCI anticancer screening, subpanel summary; type: cell-based; settings: non-small cell lung; 10 µM, joint for compounds named together
[7] = system: Leukemia subpanel tumor cell lines; test: NCI anticancer screening, subpanel summary; type: cell-based; settings: leukemia; 10 µM, joint for compounds named together
[8] = system: UACC-257; test: NCI anticancer screening (SRB), Melanoma subpanel; type: cell-based, human; settings: 10.0 µM in one dose
[9] = system: CAKI-1; test: NCI anticancer screening (SRB), Renal Cancer subpanel; type: cell-based, human; settings: 10.0 µM in one dose
[10] = system: A498; test: as above; type: cell-based, human; settings: 10.0 µM in one dose
[11] = system: MCF-7; test: NCI anticancer screening (SRB), Breast Cancer subpanel; type: cell-based, human; settings: 10.0 µM in one dose
[12] = system: SR; test: NCI anticancer screening (SRB), Leukemia subpanel; type: cell-based, human; settings: 10.0 µM in one dose
[13] = system: T-47D; test: NCI anticancer screening (SRB), Breast Cancer subpanel; type: cell-based, human; settings: 10.0 µM in one dose
[14] = system: MOLT-4; test: NCI anticancer screening (SRB), Leukemia subpanel; type: cell-based, human; settings: 10.0 µM in one dose
[15] = system: MDA-MB-468; test: NCI anticancer screening (SRB), Breast Cancer subpanel; type: cell-based, human; settings: 10.0 µM in one dose
[16] = system: PC-3; test: NCI anticancer screening (SRB), Prostate Cancer subpanel; type: cell-based, human; settings: 10.0 µM in one dose
[17] = system: LOX IMVI; test: NCI anticancer screening (SRB), Melanoma subpanel; type: cell-based, human; settings: 10.0 µM in one dose
[18] = system: HCT-15; test: NCI anticancer screening (SRB), Colon Cancer subpanel; type: cell-based, human; settings: 10.0 µM in one dose
[19] = system: Ovarian Cancer subpanel tumor cell lines; test: NCI anticancer screening, subpanel summary; type: cell-based; settings: ovarian; 10 µM, joint for compounds named together
[20] = system: SF-295; test: NCI anticancer screening (SRB), CNS Cancer subpanel; type: cell-based, human; settings: 10.0 µM in one dose
[21] = system: NCI-H23; test: NCI anticancer screening (SRB), Non-Small Cell Lung Cancer subpanel; type: cell-based, human; settings: 10.0 µM in one dose
[22] = system: DU-145; test: NCI anticancer screening (SRB), Prostate Cancer subpanel; type: cell-based, human; settings: 10.0 µM in one dose
[23] = system: MDA-MB-231/ATCC; test: NCI anticancer screening (SRB), Breast Cancer subpanel; type: cell-based, human; settings: 10.0 µM in one dose
[24] = system: U251; test: NCI anticancer screening (SRB), CNS Cancer subpanel; type: cell-based, human; settings: 10.0 µM in one dose
[25] = system: RPMI-8226; test: NCI anticancer screening (SRB), Leukemia subpanel; type: cell-based, human; settings: 10.0 µM in one dose
[26] = system: NCI-H226; test: NCI anticancer screening (SRB), Non-Small Cell Lung Cancer subpanel; type: cell-based, human; settings: 10.0 µM in one dose
[27] = system: SF-539; test: NCI anticancer screening (SRB), CNS Cancer subpanel; type: cell-based, human; settings: 10.0 µM in one dose
[28] = system: SK-MEL-5; test: NCI anticancer screening (SRB), Melanoma subpanel; type: cell-based, human; settings: 10.0 µM in one dose
[29] = system: HCT-116; test: NCI anticancer screening (SRB), Colon Cancer subpanel; type: cell-based, human; settings: 10.0 µM in one dose
[30] = system: HT29; test: as above; type: cell-based, human; settings: 10.0 µM in one dose
[31] = system: EKVX; test: NCI anticancer screening (SRB), Non-Small Cell Lung Cancer subpanel; type: cell-based, human; settings: 10.0 µM in one dose
[32] = in vitro; settings: human
Method: the measured protein at the end of the drug treatment as compared to that at the beginning) indicating a net loss of cells following treatment was calculated from [(Ti − Tz)/Tz] […] = − 50.
Values were calculated for each of these three parameters if the activity level was reached; however, if the effect was not reached or exceeded, that parameter's value was expressed as more or less than the maximum or minimum concentration tested. The log GI50, log TGI, and log LC50 were then determined and defined as the mean of the logs of the individual GI50, TGI, and LC50 values. The lowest values are obtained with the most sensitive cell lines. The compound with log GI50 values −4 and <−4 was declared active.
2. In vitro cytotoxic activity towards normal fibroblast (WI-38) cells Cell Lines were obtained from the American Type Culture Collection; cells were cultured using DMEM (Invitrogen/Life Technologies) supplemented with 10% FBS (Hyclone), ten ug/ml of insulin (Sigma), and 1% penicillin–streptomycin. Cultures were removed from the incubator into a laminar flow hood, reconstituted with 3 mL of balanced salt solution without phenol red and serum, and then added to an amount equal to 10% of the culture medium volume. Cultures returned to the incubator for 2–4 h. After the incubation period, the resulting formazan crystals dissolved […]
medium volume. The absorbance was measured Spectrophotometrically at a wavelength of 570 […]
3. In vitro cyclooxygenase (COX-2) inhibition assay
The ability of the test compounds to inhibit COX-2 was determined using an enzyme immunoassay […]
manufacturer’s instructions.

[33] = system: MCF-7 cells; test: Annexin V-FITC/PI apoptosis assay; type: cell-based, human; settings: 24 h
[34] = system: MCF-7 cells; test: Cell cycle analysis (PI flow cytometry); type: cell-based, human; settings: 10 μM, 24 h
Method: Apoptosis is the primary mechanism by which potent chemotherapeutic agents destroy cancer cells. […] Flow cytometry measured cell growth in the G0-G1, S, and G2/M cell cycle phases.
Using the MCF-7 cell line, the cell cycle analysis was carried out like our previous investigation. A FACSCalibur flow cytometer was used to analyze the cells after they had been stained with DNA fluorochrome PI (Supplementary Materials). […]
photomultiplier voltage and for compensation setting adjustment to eliminate spectral overlap between the FL1 and the FL2 signals.
6. Cell cycle analysis
Breast carcinoma (MCF-7) cell was seeded at 2 × 10^5 cells/well density and incubated for 24 h in six-well plates. Foetal bovine serum (10%) was added, and the cells were incubated at 37 °C in an atmosphere of 5% CO2. The medium was replaced with 1% (v/v) DMSO containing 10.0 μM of […]
with 70% ethanol, rinsed with phosphate-buffered saline, and then stained with the DNA fluorochrome propidium iodide (PI) for 15 min at 37 °C. Then, samples were analyzed by flow cytometry using a FACSCalibur (Becton Dickinson). The cell cycle distributions were calculated using CellQuest software (Becton Dickinson). […]

CS(=O)(=O)Nc1ccc(C(=O)N/N=C/c2cccc(O)c2)cc1 [Compound 9]
GI% [1]: 23% | GI% [2]: 12% | GI range in subpanel [3]: 11.0% | GI% [4]: 17% | PCE (positive cytotoxic effect) [5]: 3/59 | GI range in subpanel [6]: 23.0% | GI range in subpanel [7]: 10.0%

CS(=O)(=O)Nc1ccc(C(=O)N/N=C/c2ccc(O)cc2)cc1 [Compound 10]
GI% [8]: 10% | GI range in subpanel [3]: 11.0% | GI% [4]: 14% | GI% [9]: 10% | PCE (positive cytotoxic effect) [5]: 4/59 | GI% [10]: 15% | GI range in subpanel [6]: 23.0% | GI range in subpanel [7]: 10.0%

COc1cc(/C=N/NC(=O)c2ccc(NS(C)(=O)=O)cc2)ccc1O [Compound 11]
GI% [11]: 11% | GI% [12]: 10% | GI range in subpanel [3]: 11.0% | GI% [4]: 10% | GI% [9]: 16% | PCE (positive cytotoxic effect) [5]: 4/59 | GI range in subpanel [6]: 23.0% | GI range in subpanel [7]: 10.0%

Cc1ccc(NC(=O)c2ccc(CN3CCN(C)CC3)cc2)cc1Nc1nccc(-c2cccnc2)n1 [Imatinib, imatinib]
GI% [13]: 19% | GI% [14]: 18% | GI% [15]: 29% | GI% [16]: 11% | GI% [17]: 12% | GI% [18]: 12% | GI% [12]: 15% | GI range in subpanel [19]: ≥ 10.0% | GI% [20]: 15% | GI% [21]: 17% | GI% [22]: 14% | GI% [23]: 11% | GI% [24]: 11% | MG% (mean growth percent) [5]: 92.62% | MG% (mean growth percent) ([5]; listed as imatinib): 92.6% | GI% [25]: 13% | GI% [10]: 14% | GI% [26]: 11% | GI% [27]: 25% | GI% [28]: 22% | GI% [29]: 19% | GI% [30]: 47% | GI% [31]: 16%

CS(=O)(=O)CCNCc1ccc(-c2ccc3ncnc(Nc4ccc(OCc5cccc(F)c5)c(Cl)c4)c3c2)o1 [Lapatinib, lapatinib]
IC50 [32]: 32 µM

CN[C@@H]1C[C@H]2O[C@@](C)([C@@H]1OC)n1c3ccccc3c3c4c(c5c6ccccc6n2c5c31)C(=O)NC4 [Staurosporine, staurosporine]
Necrosis [33]: 4.04% | Total Apoptosis ([33]; annexin V-FITC/PI): 34.39% | Early Apoptosis ([33]; lower-right quadrant): 8.36% | Late Apoptosis ([33]; upper-right quadrant): 21.99% | %G0–G1 [34]: 65.74% | %G2-M [34]: 3.07% | %S [34]: 31.19% | Comment (cell cycle arrest phase) [34]: Growth arrest@G1/S
